# Measurements published in patent US11357749B2, “Methods for treating neutropenia” (Enzychem Lifesciences Corporation, priority 2014, dated 2022).
# Assays:
# [1] = system: HepG2 cells; assay: WST-1 cell viability assay in HepG2 cells; format: cell-based; details: HepG2, PLAG 1 to 100 μg/ml
# Method: The incubated HepG2 cell lines are treated with PLAG (1˜100 μg/ml), followed by IL-4 and TNF-α, reacted for 1 hour, incubated for 18 hours at 37° C. and the supernatant isolated. Quantitation of the amount of C3 in the cellular culture medium (supernatant) from HepG2 cells is performed by ELISA using a commercially available monoclonal antibody (mAb, R&D Systems) and the manufacture's protocol; the results are presented in FIG. 3. C3 is expressed spontaneously under in vitro culture condition using 10% FCS added to HepG2 cells incubated for 12 hr. The cells are treated with different doses of PLAG from 1 to 100 μg/ml (Panel A, Panel B) or 10 and 100 μg/ml of S6I (Panel C), reacted with IL-4 and TNF-α for 1 hr and then incubated for 18 hr at 37° C. Cellular viability is confirmed using the WST-1 assay (Panel A).
# [2] = system: platelets; assay: Tamoxifen-induced platelet reduction in mice; format: in vivo; details: Tam 100 mg/kg + PLAG 5 mg/kg, after 15 hours
# Method: (§1) Mice are injected with 100 mg/kg phenylhydrazine (PHZ), i.p., to induce anemia and reduction of platelets. 5 mg/kg PLAG is administered to the mice orally and blood samples are taken at 3 and 13 days after. In addition, for comparison, normal mice which are not treated with phenylhydrazine are prepared as a normal group, and mice treated with PHZ and olive oil instead of PLAG are prepared as a control group. The blood samples taken from the mice are treated with 0.5 ml EDTA (Minicollect tube, Greiner bio-one, Austria) and concentration of platelet is measured using automated blood sample analyzer BC-6800 (Mindray, Shenzhen, China) by number of platelet per […] (k: 1,000).
# The experiment is repeated using Tamoxifen (Tam), an anticancer agent, injected at the amount of 100 mg/kg, or lipopolysaccharide (LPS), an inflammation inducer, at the amount of 1 mg/kg to induce platelet reduction. Platelet concentration is measured 15 hours after PLAG treatment. For comparison, olive oil and PBS are used instead of PLAG as controls, respectively for the Tamoxifen and lipopolysaccharide experiment.
# [3] = system: STAT6; assay: IL-4 induced STAT6 phosphorylation, western blot in U937, A549 and Jurkat cells; format: cell-based; details: PLAG 0.01 to 10 μg/ml, 10 ng/ml IL-4, 15 min
# Method: Dephosphorylation of STAT6 is examined using anti-phosphorylated STAT6 in U937, A549, and Jurkat cell lysates treated with PLAG concentration from 0.01 to 10 μg/ml. Phosphorylation of STAT6 is induced by treatment with 10 ng/ml of IL-4. Dephosphorylation of STAT1 is examined in the U937 cell lysate treated with PLAG (0.01 to 10 μg/ml). Phosphorylation of STAT1 is induced by 10 ng of IFN-γ treatment. Dephosphorylation of STAT1 and STAT6 is examined at 15 min after stimulation with IFN-γ and IL-4 respectively, in the PLAG pretreated cells. […] The transcriptional activity of STAT6 is decreased by the dephosphorylation of STAT6. […] No effect of PLAG on STAT1 phosphorylation is observed.
# [4] = system: platelets; assay: Phenylhydrazine-induced platelet reduction in mice; format: in vivo; details: PHZ 100 mg/kg i.p. + PLAG 5 mg/kg oral
# Method: as §1
# [5] = system: ERK1/2; assay: ERK1/2 phosphorylation, western blot in IgE-antigen stimulated RBL-2H3 cells; format: cell-based; details: PLAG pre-incubated RBL-2H3 cells, IgE-antigen complex stimulation
# Method: Dephosphorylation of p38 MAPK and ERK1/2 in PLAG-treated RBL-2H3 cells is determined by western blot analysis using anti-phospho-p38 and anti-phospho-ERK1/2 respectively. To activate the p38 and ERK1/2 in RBL-2H3 cells, the cells are sensitized with 50 ng/mL of anti-DNP-IgE overnight. After washing with PBS three times, 20 ng/ml of DNP-HSA is added. Each cell lysate for western blot is prepared in the PLAG-treated RBL-2H3 cells in a dose-dependent manner and incubated for the same time (15 min). β-actin is used as internal controls. ERK1/2 and p38 phosphorylation start immediately after IgE-antigen complex stimulation and remain sufficiently activated for 5 min.
# [6] = system: white blood cells and neutrophils; assay: Cyclophosphamide-induced neutropenia in mice, G-CSF with or without PLAG; format: in vivo; details: PLAG 25 mpk p.o. added to G-CSF 0.25 mpk i.p., cyclophosphamide-treated mice
# From the text: Mice receive cyclophosphamide (100 mpk, i.p.) for a period of ten days, with or without G-CSF (0.25 mpk, i.p.) or G-CSF (0.25 mpk, i.p.) plus PLAG (25 mpk, p.o.): […]
# [7] = system: neutrophils; assay: Chemotherapy-induced neutropenia mouse model (neutrophil count, survival); format: in vivo, mice
# Method: The effect of PLAG for treatment of neutropenia and thrombocytopenia induced by chemotherapy (CIN) is evaluated in an animal model. Anti-cancer agents (Gemcitabine 50 mg/kg, Cyclosphosphamide 100 mg/kg, or Tamoxifen 50 mg/kg) are dosed daily for 3 weeks; PLAG is also administered 50 mg/kg daily for 3 weeks. After three weeks, neutrophils are harvested and counted with Auto Hematology Analyzer BC-5300.
smiles,measurement,setting,value
"CCCCC/C=C\C/C=C\CCCCCCCC(=O)OC(COC(C)=O)COC(=O)CCCCCCCCCCCCCCC (racemic) [PLAG, 1-palmitoyl-2-linoleoyl-3-acetylglycerol]",cellular viability (WST-1),[1],does not affect the cellular propagation and death
same,Platelet Conc.,[2],780.7 ± 195.9 k/ul
same,IL-4 induced STAT6 phosphorylation,[3]; A549 cells,inhibited with increasing PLAG concentrations
same,IL-4 induced STAT6 phosphorylation,[3]; Jurkat cells,inhibited with increasing PLAG concentrations
same,IL-4 induced STAT6 phosphorylation,[3]; U937 cells,inhibited with increasing PLAG concentrations
same,Platelet (day 3) Conc,[4]; day 3,1072 ± 125.4 k/ul
same,Platelet (day 13) Conc,[4]; day 13,1188.8 ± 115.6 k/ul
same,ERK1/2 phosphorylation,[5],down-regulated
same,increase of WBC over G-CSF alone,[6],more than 60%
same,increase of neutrophils over G-CSF alone,[6],more than 70%
same,reduced neutrophil count following chemotherapy,"[7]; Gemcitabine 50 mg/kg, Cyclosphosphamide 100 mg/kg or Tamoxifen 50 mg/kg daily, PLAG 50 mg/kg daily, 3 weeks",prevented
same,survival rate,[7]; PLAG with Gemcitabine vs Gemcitabine alone,improved survival rate
same,activities and survival rate,[7]; Tamoxifen 50 mg/kg co-treated with PLAG vs Tamoxifen only,faster improvement of activities and survival rate
same,neutrophil score,"[7]; mice treated with PLAG 50 mg/kg and Gemcitabine 50 mg/kg daily, 3 weeks",improved significantly
same,neutrophil count,"[7]; mice treated with PLAG 50 mg/kg and cyclophosphamide 100 mg/kg daily, 3 weeks, vs control group",improved significantly
